Measurements reported in patent US20090011410A1, “METHOD FOR TAILORING ADMINISTRATION OF DRUGS BY QUANTITATION OF MRNA” (priority 2004, published 2009).

Legend:
Format in all cases: cell-based, human
p21 mRNA [1] = experiment: drug-induced p21 mRNA expression in whole blood of leukemia and lymphoma patients
PUMA mRNA [2] = experiment: drug-induced PUMA mRNA expression in whole blood of leukemia and lymphoma patients; settings: 2 hours at 37° C.; for PUMA response: NHL patient, drug concentrations (FIG. 8C)
BAX mRNA = experiment: drug-induced BAX mRNA expression in whole blood of leukemia and lymphoma patients; settings: drug concentrations (FIG. 3)
Experimental: The mRNA and cDNA were prepared from whole blood. In brief, home-made 96-well filterplates were placed over collection plates, and 150 μl 5 mM Tris, pH 7.4, was applied. Following centrifugation at 120×g for 1 min at 4° C., 50 μl of blood samples were applied to each well and immediately centrifuged at 120×g for 2 min at 4° C., followed by washing of each well with 300 μl PBS once with centrifugation at 2000×g for 5 min at 4° C. Then, 60 μl stock lysis buffer, containing for example 0.5% N-Lauroylsarcosine, 4×SSC, 10 mM Tris HCl, pH 7.4, 1 mM EDTA, 0.1% IGEPAL CA-630, and 1.791 M guanidine thiocyanate, supplemented with 1% 2-mercaptoethanol (Bio Rad, Hercules, Calif., USA), 0.5 mg/ml proteinase K (Pierce, Rockford, Ill., USA), 0.1 mg/ml salmon sperm DNA (5 Prime Eppendorf/Brinkmann, Westbury, N.Y., USA), 0.1 mg/ml E. coli tRNA (Sigma), a cocktail of 10 mM each of the specific reverse primers shown in Table 1, and standard RNA34 oligonucleotides, were applied to the filterplates, followed by incubation at 37° C. for 10 min. The filterplates were then placed over oligo(dT)-immobilized microplates (GenePlate, RNAture), and centrifuged at 2000×g for 5 min at 4° C. Following overnight storage at 4° C., the microplates were washed with 100 μl plain lysis buffer 3 times, followed by 150 μl of wash buffer (0.5 M NaCl, 10 mM Tris, pH 7.4, 1 mM EDTA) 3 times at 4° C. The cDNA was directly synthesized in each well by adding 30 μl buffer containing 1× RT-butter, 1.25 mM each of dNTP, 4 units rRNasin, and 80 units of MMLV reverse transcriptase (Promega) (without primers), and incubation at 37° C. for 2 hours. The specific primer-primed cDNA existed in solution, and oligo(dT)-primed cDNA stayed immobilized in the microplate. For TaqMan PCR (FIGS. 1, 3, 4), the resultant 4 μl cDNA solution was directly transferred to 384-well PCR plates, to which 5 μl of TaqMan universal master mix (ABI) and 1 μl oligonucleotide cocktail (15 μM each of forward and reverse primer, and 3-6 μM TaqMan probe) were applied, and PCR was conducted in PRISM 7900HT (ABI), with one cycle of 95° C. for 10 min followed by 45 cycles of 95° C. for 30 sec, 55° C. for 30 sec, and 60° C. for 1 min. […] The Ct was determined by analytical software (SDS, ABI).

p21 mRNA [3] = experiment: drug-induced p21 mRNA expression in whole blood of healthy adults; settings: 10 or 100 μM taxol, 2 hours at 37° C., all individuals (FIG. 13)
Excerpt: Blood was obtained from healthy adults and from two leukemic non-Hodgkin's malignant lymphoma patients. U937, KG-1, and Jurkat cells were obtained from American Type Culture Collection (ATCC, Manassas, Va.), and maintained in RPMI 1640 supplemented with 10% fetal calf serum. Of these, U937 cells are a human histiocytic lymphoma cell line, KG-1 cells are a human bone marrow myelogenous leukemia cell line, and Jurkat cells are a human T-cell lymphoblast-like, leukemia derived cell line. […] For human experiments, blood aliquots were stimulated with various anti-cancer drugs at 37° C. for 2 hours, then both p21 and BAX mRNA were measured. The anti-cancer drugs used in this study were clinical drugs, and the concentration of each drug was adjusted to typical blood levels 3-6 hours after intravenous administration.
(§1) The mRNA and cDNA were prepared from whole blood. In brief, home-made 96-well filterplates were placed over collection plates, and 150 μl 5 mM Tris, pH 7.4, was applied. Following centrifugation at 120×g for 1 min at 4° C., 50 μl of blood samples were applied to each well and immediately centrifuged at 120×g for 2 min at 4° C., followed by washing of each well with 300 μl PBS once with centrifugation at 2000×g for 5 min at 4° C. Then, 60 μl stock lysis buffer, containing for example 0.5% N-Lauroylsarcosine, 4×SSC, 10 mM Tris HCl, pH 7.4, 1 mM EDTA, 0.1% IGEPAL CA-630, and 1.791 M guanidine thiocyanate, supplemented with 1% 2-mercaptoethanol (Bio Rad, Hercules, Calif., USA), 0.5 mg/ml proteinase K (Pierce, Rockford, Ill., USA), 0.1 mg/ml salmon sperm DNA (5 Prime Eppendorf/Brinkmann, Westbury, N.Y., USA), 0.1 mg/ml E. coli tRNA (Sigma), a cocktail of 10 mM each of the specific reverse primers shown in Table 1, and standard RNA34 oligonucleotides, were applied to the filterplates, followed by incubation at 37° C. for 10 min. The filterplates were then placed over oligo(dT)-immobilized microplates (GenePlate, RNAture), and centrifuged at 2000×g for 5 min at 4° C. Following overnight storage at 4° C., the microplates were washed with 100 μl plain lysis buffer 3 times, followed by 150 μl of wash buffer (0.5 M NaCl, 10 mM Tris, pH 7.4, 1 mM EDTA) 3 times at 4° C. The cDNA was directly synthesized in each well by adding 30 μl buffer containing 1× RT-butter, 1.25 mM each of dNTP, 4 units rRNasin, and 80 units of MMLV reverse transcriptase (Promega) (without primers), and incubation at 37° C. for 2 hours. The specific primer-primed cDNA existed in solution, and oligo(dT)-primed cDNA stayed immobilized in the microplate. For TaqMan PCR (FIGS. 1, 3, 4), the resultant 4 μl cDNA solution was directly transferred to 384-well PCR plates, to which 5 μl of TaqMan universal master mix (ABI) and 1 μl oligonucleotide cocktail (15 μM each of forward and reverse primer, and 3-6 μM TaqMan probe) were applied, and PCR was conducted in PRISM 7900HT (ABI), with one cycle of 95° C. for 10 min followed by 45 cycles of 95° C. for 30 sec, 55° C. for 30 sec, and 60° C. for 1 min. For SYBR Green PCR (see FIG. 6), cDNA was diluted 3-4 fold in water, and 4 μl cDNA solution was directly transferred to 384-well PCR plates, to which 5 μl of a master mix (BioRad, Hercules, Calif.) and 1 μl of oligonucleotide cocktail (15 μM each of forward and reverse primer) were applied, and PCR was conducted in PRISM 7900HT (ABI), with one cycle of 95° C. for 10 min followed by 45 cycles of 95° C. for 30 sec and 60° C. for 1 min. Each gene was amplified in separate wells. The Ct was determined by analytical software (SDS, ABI).
In 8-well strip microtubes, 1.4 μl of 50× concentrations of drugs or controls (phosphate buffered saline (PBS) or DMSO) were added, and stored at −20° C. until use. […] Seventy μl of fresh heparinized whole blood was added into each well in triplicate, and incubated at 37° C. for 2-8 hours with the cap closed. For radiation treatment, blood was stimulated at designated doses using cesium-137.

PUMA mRNA [4] = experiment: drug-induced PUMA mRNA expression in whole blood of healthy adults; settings: 10 or 100 μM taxol, 2 hours at 37° C., all individuals (FIG. 13)
Experimental: In 8-well strip microtubes, 1.4 μl of 50× concentrations of drugs or controls (phosphate buffered saline (PBS) or DMSO) were added, and stored at −20° C. until use. […] Seventy μl of fresh heparinized whole blood was added into each well in triplicate, and incubated at 37° C. for 2-8 hours with the cap closed. For radiation treatment, blood was stimulated at designated doses using cesium-137. After each treatment, 50 μl of whole blood was transferred to filterplates as described below.
as §1, with “1×RT-buffer,” for “1× RT-butter,”, “ABI). Although 1×RT buffer was used as a negative control, none of the primer pairs produced non-specific primer-dimers under these experimental conditions. For PUMA in FIG. 8, immobilized cDNA on the oligo(dT)-immobilized microplates was directly amplified in an iCycler (BioRad).” for “ABI).”
Quantitation of various mRNAs was conducted using the following method. Triplicate aliquots of 50 μl each of heparinized whole blood was applied to 96-well filterplates to trap leukocytes. The filterplates were placed over collection plates, and 150 μl 5 mM Tris, pH 7.4, was applied. […]

[5] = leukemic lymphoma patient 2, 2 hours at 37° C., drug concentrations (FIG. 3)
[6] = AML patient, drug concentrations of b94 (FIG. 8B)
[7] = leukemic lymphoma patient 1, 2 hours at 37° C., drug concentrations (FIG. 3)
[8] = leukemic lymphoma patient 1, 2 hours at 37° C.

COc1cccc2c1C(=O)c1c(O)c3c(c(O)c1C2=O)C[C@@](O)(C(=O)CO)C[C@@H]3O[C@H]1C[C@H](N)[C@H](O)[C@H](C)O1 [Adriacin, doxorubicin]
p21 mRNA induction (p21 mRNA [1]; [5]): significant p21 mRNA induction

O=P1(N(CCCl)CCCl)NCCCO1 (centres unmarked) [Endoxan, cyclophosphamide]
p21 mRNA induction (p21 mRNA [1]): induced

Nc1nc(F)nc2c1ncn2[C@@H]1O[C@H](CO)[C@@H](O)[C@@H]1O [Fludara, fludarabine]
p21 mRNA induction (p21 mRNA [1]; [5]): significant p21 mRNA induction
PUMA induction (PUMA mRNA [2]; [6]): huge induction

O=C1c2c(O)ccc(O)c2C(=O)c2c(NCCNCCO)ccc(NCCNCCO)c21 [MIT, mitoxantrone]
BAX mRNA induction (BAX mRNA; leukemic lymphoma patient 2, 2 hours at 37° C.): BAX mRNA induction
PUMA induction (PUMA mRNA [2]; [6]): huge induction
PUMA induction (PUMA mRNA [2]; CLL patient, drug concentrations of b94 (FIG. 8A)): induced
PUMA response (PUMA mRNA [2]): strong PUMA response

[NH2][Pt]1([NH2])[O]C(=O)C2(CCC2)C(=O)[O]1 [Paraplatin, carboplatin]
p21 mRNA induction (p21 mRNA [1]; [7]): significant induction
BAX mRNA induction (BAX mRNA; [8]): significant induction

COc1cccc2c1C(=O)c1c(O)c3c(c(O)c1C2=O)C[C@@](O)(C(=O)CO)C[C@@H]3O[C@H]1C[C@H](N)[C@H](O[C@@H]2CCCCO2)[C@H](C)O1 [THP, pirarubicin]
p21 mRNA induction (p21 mRNA [1]; [7]): significant induction
BAX mRNA induction (BAX mRNA; [8]): significant induction
PUMA induction (PUMA mRNA [2]; [6]): huge induction
PUMA response (PUMA mRNA [2]): strong PUMA response

CC[C@]1(O)C[C@@H]2CN(CCc3c([nH]c4ccccc34)[C@@](C(=O)OC)(c3cc4c(cc3OC)N(C)[C@H]3[C@@](O)(C(=O)OC)[C@H](OC(C)=O)[C@]5(CC)C=CCN6CC[C@]43[C@@H]65)C2)C1 [VLB, vinblastine]
p21 induction (p21 mRNA [1]; AML patient, 2 hours at 37° C., drug concentrations of b94 (FIG. 8B)): significant p21 induction

CC(=O)O[C@H]1C(=O)[C@@]2(C)[C@H]([C@H](OC(=O)c3ccccc3)[C@]3(O)C[C@H](OC(=O)[C@H](O)[C@@H](NC(=O)c4ccccc4)c4ccccc4)C(C)=C1C3(C)C)[C@]1(OC(C)=O)CO[C@@H]1C[C@@H]2O [taxol]
p21 mRNA induction (p21 mRNA [3]): failed to induce
PUMA mRNA induction (PUMA mRNA [4]): failed to induce
